Results reported in patent US20250327029A1, “PROCESS FOR THE OBTENTION OF INVARIANT NATURAL KILLER T CELLS” (Université de Lorraine, priority 2022, published 2025).

System: CD4^− iNKT cells
Test: Expansion of iNKT cells from PBMC cultured with alpha-GalCer and a cytokine (IL-15 or IL-2)
Format: cell-based, human
Method: The expansion factor of iNKT cells is more preferably comprised between 100 and 10 000. The “expansion factor” corresponds to the number of iNKT cells obtained at day 14 of expansion divided by the number of iNKT cells put in culture at day 0. The number of cells is determined by routinely used techniques by the skilled person (cell couting and flow cytometry staining to determine the percentage of iNKT cells among total PBMCs).
PBMC obtained by centrifugation of fresh whole blood on density gradient were culture at the concentration of 5.10^5 cells/mL in RPMI 1640 advanced medium (ref: 11530446, Gibco®), with 5% SVF v/v, 4 mM glutamine, 100 ng/mL alpha-galactoside-ceramide (KRN-7000, Funakoshi). Cultures were performed in a cell culture bag in a normoxia incubator at 37° C. and 5% CO2.
On day 1 of culture, 10 ng/mL of IL-15 were added.
On day 7 of culture, 50% of the medium was changed and 10 ng/mL of IL-15 were introduced.
On day 10 of the culture, 50% of the medium was changed and 10 ng/mL of IL-15 were introduced.
On day 14 of the culture, the obtained iNKT cells were sorted by performing a magnetic CD4^+ cell isolation (CD4 MicroBeads kit commercialized by Miltenyi Biotec Inc.), retrieving the negative fraction, performing a magnetic iNKT^+ isolation on said fraction (Anti-iNKT MicroBeads kit commercialized by Miltenyi Biotec Inc.) and retrieving the positive fraction corresponding to the isolated CD4^− iNKT cell population.

Substance: IL-15: human cytokine that stimulates the proliferation of T-lymphocytes; Uniprot P40933
- mean % CD4^− iNKT cells±SEM (D14 of culture, n=14): 60.6±5.23%
- mean expansion factor of CD4^− iNKT cells±SEM (cytokine present during expansion phase, n=17, cells at day 14 / cells at day 0): 652±128
- CD4^− iNKT cells among the expanded iNKT cells (end of 14-day culture, healthy donor PBMC): 61%
- percentage of iNKT cells at the end of the 14-day culture (% among total T lymphocytes) (healthy donor PBMC, 0.82% iNKT at D0): 81.5%
